Legend:
[1] = Cytotoxicity against HEK293 cells assessed as reduction in cell viability incubated for 72 hrs by Cell Titer Glo 2.0 reagent based assay; details: human
[2] = molecular target: Platelet-derived growth factor receptor alpha (Homo sapiens, UniProt P16234); test: Inhibition of PDGFRalpha (unknown origin) assessed as residual activity incubated for 5 mins in presence of [gamma-33ATP] by scintillation counting based radiometry assay
[3] = molecular target: Ephrin type-A receptor 4 (Homo sapiens) (UniProt P54764); test: Inhibition of EPHA4 (unknown origin) assessed as residual activity at 10 uM incubated for 5 mins in presence of [gamma-33ATP] by scintillation counting based radiometry assay relative to control
Sequence of Ephrin type-A receptor 4 (Homo sapiens) (P54764 whole entry, looked up): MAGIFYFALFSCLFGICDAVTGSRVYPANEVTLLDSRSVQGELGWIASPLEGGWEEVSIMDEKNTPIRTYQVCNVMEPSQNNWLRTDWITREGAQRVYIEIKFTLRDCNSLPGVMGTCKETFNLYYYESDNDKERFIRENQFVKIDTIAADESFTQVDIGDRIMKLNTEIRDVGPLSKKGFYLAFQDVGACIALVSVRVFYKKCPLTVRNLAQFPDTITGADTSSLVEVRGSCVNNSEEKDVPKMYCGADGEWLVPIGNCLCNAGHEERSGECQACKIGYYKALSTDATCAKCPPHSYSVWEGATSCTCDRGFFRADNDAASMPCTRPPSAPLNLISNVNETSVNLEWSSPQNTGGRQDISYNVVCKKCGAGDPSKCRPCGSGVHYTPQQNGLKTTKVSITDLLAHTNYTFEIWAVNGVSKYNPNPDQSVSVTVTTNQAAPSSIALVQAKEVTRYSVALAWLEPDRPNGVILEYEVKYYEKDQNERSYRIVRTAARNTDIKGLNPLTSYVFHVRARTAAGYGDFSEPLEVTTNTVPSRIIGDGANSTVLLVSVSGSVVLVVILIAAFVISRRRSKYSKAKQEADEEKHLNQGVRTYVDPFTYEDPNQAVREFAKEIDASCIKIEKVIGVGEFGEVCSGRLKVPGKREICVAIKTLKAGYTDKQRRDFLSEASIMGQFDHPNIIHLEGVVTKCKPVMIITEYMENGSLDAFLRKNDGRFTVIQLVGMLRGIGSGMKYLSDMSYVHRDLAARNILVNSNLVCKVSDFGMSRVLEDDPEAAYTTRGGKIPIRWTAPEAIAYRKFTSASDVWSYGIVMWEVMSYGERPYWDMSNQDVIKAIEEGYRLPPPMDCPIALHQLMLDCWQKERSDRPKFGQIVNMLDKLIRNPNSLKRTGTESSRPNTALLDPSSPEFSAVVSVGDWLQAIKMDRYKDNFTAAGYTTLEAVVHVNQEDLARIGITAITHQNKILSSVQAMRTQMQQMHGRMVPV

[4] = molecular target: Ephrin type-A receptor 4 (Homo sapiens) (UniProt P54764); test: Inhibition of EPHA4 (unknown origin) assessed as residual activity incubated for 5 mins in presence of [gamma-33ATP] by scintillation counting based radiometry assay
[5] = molecular target: T1, Ephrin type-B receptor 2 (Homo sapiens, UniProt P29323); test: Inhibition of EPHB2 (unknown origin) assessed as residual activity incubated for 5 mins in presence of [gamma-33ATP] by scintillation counting based radiometry assay
T1 sequence (P29323 whole entry): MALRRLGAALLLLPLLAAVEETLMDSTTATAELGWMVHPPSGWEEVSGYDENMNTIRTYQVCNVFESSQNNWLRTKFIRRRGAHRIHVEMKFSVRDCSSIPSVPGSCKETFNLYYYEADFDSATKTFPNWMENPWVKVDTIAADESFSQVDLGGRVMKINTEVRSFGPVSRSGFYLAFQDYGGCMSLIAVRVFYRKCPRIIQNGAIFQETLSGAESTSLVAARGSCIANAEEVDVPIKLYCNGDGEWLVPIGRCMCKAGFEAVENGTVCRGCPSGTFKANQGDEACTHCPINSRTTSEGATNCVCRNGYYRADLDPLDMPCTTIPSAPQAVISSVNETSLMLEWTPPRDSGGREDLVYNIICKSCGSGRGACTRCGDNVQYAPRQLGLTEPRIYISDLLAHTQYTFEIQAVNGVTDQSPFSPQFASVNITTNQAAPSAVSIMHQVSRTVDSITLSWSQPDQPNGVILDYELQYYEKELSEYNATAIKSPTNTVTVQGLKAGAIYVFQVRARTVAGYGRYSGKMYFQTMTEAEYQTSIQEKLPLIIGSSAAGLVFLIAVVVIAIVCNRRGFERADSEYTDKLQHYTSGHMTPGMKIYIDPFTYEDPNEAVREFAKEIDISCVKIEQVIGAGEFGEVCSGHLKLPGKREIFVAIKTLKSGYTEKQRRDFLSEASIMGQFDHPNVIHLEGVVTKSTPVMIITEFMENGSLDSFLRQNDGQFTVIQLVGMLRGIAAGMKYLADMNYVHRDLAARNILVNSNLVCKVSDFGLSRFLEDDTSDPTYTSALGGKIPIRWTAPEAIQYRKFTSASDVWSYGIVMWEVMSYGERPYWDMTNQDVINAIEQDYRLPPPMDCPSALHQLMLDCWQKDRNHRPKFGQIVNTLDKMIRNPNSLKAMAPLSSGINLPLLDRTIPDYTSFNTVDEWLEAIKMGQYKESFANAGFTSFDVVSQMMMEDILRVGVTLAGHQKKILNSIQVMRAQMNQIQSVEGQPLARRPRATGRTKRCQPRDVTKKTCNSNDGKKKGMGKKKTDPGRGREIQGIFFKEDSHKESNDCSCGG

[6] = molecular target: Proto-oncogene tyrosine-protein kinase Src (Homo sapiens, UniProt P12931); test: Inhibition of SRC (unknown origin) assessed as residual activity incubated for 5 mins in presence of [gamma-33ATP] by scintillation counting based radiometry assay
Sequence of Proto-oncogene tyrosine-protein kinase Src (P12931 2-536 limits assumed): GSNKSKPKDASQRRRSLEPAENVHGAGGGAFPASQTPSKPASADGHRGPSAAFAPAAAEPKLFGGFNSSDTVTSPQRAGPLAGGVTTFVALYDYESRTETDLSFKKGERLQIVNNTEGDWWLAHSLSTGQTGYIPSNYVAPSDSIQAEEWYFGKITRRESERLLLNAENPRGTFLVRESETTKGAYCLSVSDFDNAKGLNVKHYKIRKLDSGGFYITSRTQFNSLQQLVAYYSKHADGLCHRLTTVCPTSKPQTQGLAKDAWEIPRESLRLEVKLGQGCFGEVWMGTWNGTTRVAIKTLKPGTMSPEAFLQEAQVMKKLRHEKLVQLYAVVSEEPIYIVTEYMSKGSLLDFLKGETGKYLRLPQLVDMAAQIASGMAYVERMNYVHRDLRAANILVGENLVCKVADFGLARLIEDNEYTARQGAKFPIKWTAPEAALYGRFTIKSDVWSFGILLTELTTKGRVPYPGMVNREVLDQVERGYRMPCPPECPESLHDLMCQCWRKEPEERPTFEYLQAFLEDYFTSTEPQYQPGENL

Sequence of Platelet-derived growth factor receptor alpha (P16234 whole entry): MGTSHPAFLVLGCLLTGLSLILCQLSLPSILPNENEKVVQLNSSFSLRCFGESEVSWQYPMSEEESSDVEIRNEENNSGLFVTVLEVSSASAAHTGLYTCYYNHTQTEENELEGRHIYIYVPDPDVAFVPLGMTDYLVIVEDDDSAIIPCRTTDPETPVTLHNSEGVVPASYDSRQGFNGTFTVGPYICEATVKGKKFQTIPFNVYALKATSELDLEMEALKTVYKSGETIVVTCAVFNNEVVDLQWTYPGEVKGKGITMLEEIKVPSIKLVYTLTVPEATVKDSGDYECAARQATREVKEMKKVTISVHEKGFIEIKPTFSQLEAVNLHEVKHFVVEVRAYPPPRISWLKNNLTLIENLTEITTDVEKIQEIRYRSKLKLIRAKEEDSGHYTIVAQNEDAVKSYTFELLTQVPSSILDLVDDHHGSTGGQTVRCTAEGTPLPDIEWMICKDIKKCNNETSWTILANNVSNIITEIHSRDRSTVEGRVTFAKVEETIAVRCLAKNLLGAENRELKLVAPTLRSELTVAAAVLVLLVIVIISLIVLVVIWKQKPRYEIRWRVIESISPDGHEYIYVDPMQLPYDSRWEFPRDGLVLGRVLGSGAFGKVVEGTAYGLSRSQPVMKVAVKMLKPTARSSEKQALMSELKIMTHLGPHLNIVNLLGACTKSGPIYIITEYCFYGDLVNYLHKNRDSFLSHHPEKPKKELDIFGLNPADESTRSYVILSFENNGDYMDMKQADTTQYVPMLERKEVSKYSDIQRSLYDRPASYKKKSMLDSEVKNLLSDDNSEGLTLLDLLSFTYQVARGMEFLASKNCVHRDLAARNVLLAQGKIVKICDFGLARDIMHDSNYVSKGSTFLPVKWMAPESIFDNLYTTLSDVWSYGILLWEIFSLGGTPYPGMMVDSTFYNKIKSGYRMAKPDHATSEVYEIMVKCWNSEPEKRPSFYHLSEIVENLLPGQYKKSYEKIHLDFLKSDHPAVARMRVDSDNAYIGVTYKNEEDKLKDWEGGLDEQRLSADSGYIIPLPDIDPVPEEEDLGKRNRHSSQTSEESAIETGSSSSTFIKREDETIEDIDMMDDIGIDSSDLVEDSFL

IC50 [2]: 0.002 µM
Activity [3]: 2%
IC50 [4]: 0.0846 µM
IC50 [5]: 0.0708 µM
IC50 [6]: 0.431 µM
SMILES: Cc1ccc(C(=O)Nc2ccc(CN3Cc4cn[nH]c4C3)c(Cl)c2)cc1C#Cc1cnc2cccnn12
CC50 at 72 h [1]: > 50 µM
